{"source": "ChEMBL document CHEMBL1201862", "about": "“PubChem BioAssay data set” (2004)", "key": {"[1]": {"test": "HEK-293T viability loss after treatment – luminescence, T-cell screen hits, cytotoxicity control for TCR NF-kB inhibitor project, dose response (AID 489026);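 also: cells exposed to compound about 14 hours before the viability readout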", "assay_type": "functional, cell-based"}, "[2]": {"test": "P. falciparum Dd2 growth inhibitors, dose response, SYBR Green, cherry-picked samples (AID 1159567)", "assay_type": "functional, cell-based"}, "[3]": {"test": "toxicity to human hepatoma HepG2 cells – cell-based, cherry-picked samples, cytotoxicity control, dose response (AID 1159577)", "assay_type": "functional"}, "[4]": {"target": "T1, High affinity choline transporter 1 (Homo sapiens, UniProt Q9GZV3)", "T1 sequence (Q9GZV3 whole entry)": "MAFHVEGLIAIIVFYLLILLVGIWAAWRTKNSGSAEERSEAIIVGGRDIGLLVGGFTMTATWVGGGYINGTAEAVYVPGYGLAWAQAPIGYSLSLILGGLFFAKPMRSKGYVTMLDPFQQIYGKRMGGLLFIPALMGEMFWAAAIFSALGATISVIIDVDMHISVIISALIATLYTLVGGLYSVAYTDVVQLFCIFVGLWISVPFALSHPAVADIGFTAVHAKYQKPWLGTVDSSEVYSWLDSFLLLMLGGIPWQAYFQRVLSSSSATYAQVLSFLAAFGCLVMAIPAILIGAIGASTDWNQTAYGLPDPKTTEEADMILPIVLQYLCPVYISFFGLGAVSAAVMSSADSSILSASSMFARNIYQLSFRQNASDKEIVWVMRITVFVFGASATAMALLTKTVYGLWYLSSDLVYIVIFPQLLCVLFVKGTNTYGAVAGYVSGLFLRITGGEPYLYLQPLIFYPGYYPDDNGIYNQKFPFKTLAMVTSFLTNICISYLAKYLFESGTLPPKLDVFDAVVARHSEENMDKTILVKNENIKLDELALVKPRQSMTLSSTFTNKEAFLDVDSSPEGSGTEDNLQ", "test": "human choline transporter blockers, potency – cell-based, 5-point CRC, membrane potential dye, dose response (AID 504840)", "assay_type": "functional"}, "[5]": {"target": "T2, Zinc finger protein mex-5 (Caenorhabditis elegans, UniProt Q9XUB2)", "T2 sequence (Q9XUB2 whole entry)": "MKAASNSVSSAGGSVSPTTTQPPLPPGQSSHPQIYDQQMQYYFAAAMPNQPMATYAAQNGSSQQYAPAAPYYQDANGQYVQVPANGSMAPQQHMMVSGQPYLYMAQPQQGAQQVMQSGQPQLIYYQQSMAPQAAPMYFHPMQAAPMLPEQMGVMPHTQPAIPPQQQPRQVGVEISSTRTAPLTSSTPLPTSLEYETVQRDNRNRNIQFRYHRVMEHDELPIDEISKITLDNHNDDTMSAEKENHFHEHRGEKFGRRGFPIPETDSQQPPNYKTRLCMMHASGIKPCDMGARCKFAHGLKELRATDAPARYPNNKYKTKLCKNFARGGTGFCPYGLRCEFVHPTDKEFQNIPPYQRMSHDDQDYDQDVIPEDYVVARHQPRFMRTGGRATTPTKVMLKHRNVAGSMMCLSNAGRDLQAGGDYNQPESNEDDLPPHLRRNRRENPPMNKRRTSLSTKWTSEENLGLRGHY", "test": "potency of MEX-5 RNA-binding blockers – biochemical, C. elegans, fluorescence polarization, dose response (AID 1960)"}, "[6]": {"target": "Cytochrome P450 2C19 (Homo sapiens, UniProt P33261)", "sequence (P33261 whole entry)": "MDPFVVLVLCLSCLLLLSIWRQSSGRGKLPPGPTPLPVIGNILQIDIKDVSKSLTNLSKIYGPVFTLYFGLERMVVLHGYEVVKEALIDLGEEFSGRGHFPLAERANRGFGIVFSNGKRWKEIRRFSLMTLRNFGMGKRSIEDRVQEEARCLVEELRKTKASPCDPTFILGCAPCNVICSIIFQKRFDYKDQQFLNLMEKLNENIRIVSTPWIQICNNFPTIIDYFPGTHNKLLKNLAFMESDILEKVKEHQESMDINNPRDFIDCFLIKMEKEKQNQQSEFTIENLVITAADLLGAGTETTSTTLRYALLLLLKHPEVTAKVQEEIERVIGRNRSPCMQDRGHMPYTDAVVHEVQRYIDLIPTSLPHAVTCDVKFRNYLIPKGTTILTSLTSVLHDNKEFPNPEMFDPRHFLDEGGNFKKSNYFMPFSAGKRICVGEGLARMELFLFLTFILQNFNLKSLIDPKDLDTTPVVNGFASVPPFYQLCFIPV", "test": "Cytochrome panel assay with activity outcomes. Panel member name: p450-cyp2c19 Compounds with AC50 equal or less than 10 uM are considered active", "assay_type": "functional", "details": "read-out: AC50"}, "[7]": {"target": "T3, RNA-binding protein pos-1 (Caenorhabditis elegans, UniProt G5EF15)", "T3 sequence (G5EF15 whole entry)": "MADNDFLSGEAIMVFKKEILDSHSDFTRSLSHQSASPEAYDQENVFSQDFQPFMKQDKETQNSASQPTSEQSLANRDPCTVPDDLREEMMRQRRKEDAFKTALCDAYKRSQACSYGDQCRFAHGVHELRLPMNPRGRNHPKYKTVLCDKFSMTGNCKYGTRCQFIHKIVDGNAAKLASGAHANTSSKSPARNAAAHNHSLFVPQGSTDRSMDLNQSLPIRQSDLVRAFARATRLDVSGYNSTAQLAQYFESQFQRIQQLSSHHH", "test": "disruptors of C. elegans POS-1 RNA interaction – biochemical, fluorescence polarization, dose response (AID 1964);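 also: purified POS-1 fused to maltose binding protein made in E. coli; potency of compounds blocking POS-1 binding to fluorescent RNA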"}, "[8]": {"target": "Cytochrome P450 2C9 (Homo sapiens, UniProt P11712)", "sequence (P11712 whole entry)": "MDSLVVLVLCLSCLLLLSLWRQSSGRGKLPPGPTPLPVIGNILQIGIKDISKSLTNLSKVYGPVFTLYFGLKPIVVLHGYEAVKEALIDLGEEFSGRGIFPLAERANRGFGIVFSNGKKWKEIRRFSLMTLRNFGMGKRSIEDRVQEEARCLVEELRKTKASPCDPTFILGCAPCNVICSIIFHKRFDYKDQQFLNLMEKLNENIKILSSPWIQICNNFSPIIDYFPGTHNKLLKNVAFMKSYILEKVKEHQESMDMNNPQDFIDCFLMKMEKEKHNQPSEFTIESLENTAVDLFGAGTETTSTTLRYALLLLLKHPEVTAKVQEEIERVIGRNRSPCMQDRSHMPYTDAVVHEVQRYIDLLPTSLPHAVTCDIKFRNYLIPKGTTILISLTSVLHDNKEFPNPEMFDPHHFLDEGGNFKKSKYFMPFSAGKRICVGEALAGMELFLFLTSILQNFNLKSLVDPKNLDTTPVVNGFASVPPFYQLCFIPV"}, "[9]": {"target": "Cytochrome P450 3A4 (Homo sapiens, UniProt P08684)", "sequence (P08684 whole entry)": "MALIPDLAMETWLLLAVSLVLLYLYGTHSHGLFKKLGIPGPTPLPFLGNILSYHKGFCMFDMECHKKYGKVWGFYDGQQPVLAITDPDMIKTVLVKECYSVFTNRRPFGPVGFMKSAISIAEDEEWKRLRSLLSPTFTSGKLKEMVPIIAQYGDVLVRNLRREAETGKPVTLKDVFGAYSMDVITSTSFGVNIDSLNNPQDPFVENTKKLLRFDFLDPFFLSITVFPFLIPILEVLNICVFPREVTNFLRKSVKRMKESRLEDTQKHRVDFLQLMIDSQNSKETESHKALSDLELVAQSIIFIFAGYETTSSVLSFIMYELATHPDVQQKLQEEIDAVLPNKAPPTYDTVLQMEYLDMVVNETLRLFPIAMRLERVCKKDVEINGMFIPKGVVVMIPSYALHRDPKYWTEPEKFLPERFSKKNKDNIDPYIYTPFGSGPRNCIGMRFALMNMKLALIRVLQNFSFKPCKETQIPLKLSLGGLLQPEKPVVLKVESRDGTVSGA", "details": "Potency"}, "[10]": {"target": "Nonstructural protein 1 (Influenza A virus, UniProt Q194T2)", "sequence (Q194T2 whole entry)": "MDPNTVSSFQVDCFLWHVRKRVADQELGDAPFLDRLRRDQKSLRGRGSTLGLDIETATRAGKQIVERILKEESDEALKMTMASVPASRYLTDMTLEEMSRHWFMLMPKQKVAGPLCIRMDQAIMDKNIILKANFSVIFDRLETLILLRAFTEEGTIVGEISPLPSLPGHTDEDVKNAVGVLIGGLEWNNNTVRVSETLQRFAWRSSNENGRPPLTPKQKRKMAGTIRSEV", "assay_type": "functional, Influenza A virus (A/California/07/2009(H1N1))"}}, "note": "Calls of active or inactive are those of the source.", "data": [{"smiles": "O=C(c1ccc(C[S+]([O-])c2ccccc2Cl)o1)N1CCN(c2ccccn2)CC1", "note": "(stereo not drawn)", "values": [{"measurement": "IC50", "setting": "[1]", "result": "> 80 µM (inactive)"}]}, {"smiles": "CC(C)NC[C@@H]1[C@@H](c2ccc(C3=CCCCC3)cc2)[C@@H](CO)N1C(=O)CC1CC1", "values": [{"measurement": "AC50", "setting": "[2]", "result": "6.18 µM (active)"}, {"measurement": "AC50", "setting": "[3]", "result": "36 µM (active)"}]}, {"smiles": "COc1ccc2c3c(n(C)c2c1)[C@H](CO)N(C(=O)Nc1ccccc1F)CC31CN(C)C1", "values": [{"measurement": "AC50", "setting": "[2]", "result": "6.4 µM (active)"}, {"measurement": "AC50", "setting": "[3]", "result": "18.5 µM (active)"}]}, {"smiles": "CCCc1ccc(OCc2ccc(C(=O)NCc3cccnc3)o2)c(OC)c1", "values": [{"measurement": "IC50", "setting": "[4]", "result": "5.01 µM (active)"}]}, {"smiles": "CCC(=S)/C=C1\\Sc2ccc3ccccc3c2N1CCCS(=O)(=O)O", "values": [{"measurement": "EC50", "setting": "[5]", "result": "> 300 µM (not active)"}, {"measurement": "AC50", "setting": "[6]", "result": "28.2 µM (inconclusive)"}, {"measurement": "EC50", "setting": "[7]", "result": "> 300 µM (not active)"}, {"measurement": "AC50", "setting": "[8]", "result": "20 µM (inconclusive)"}]}, {"smiles": "Cn1c(N)c(C(=O)COC(=O)c2ccnc3ccccc23)c(=O)n(C)c1=O", "values": [{"measurement": "AC50", "setting": "[9]", "result": "15.8 µM (inconclusive)"}]}, {"smiles": "Cc1ccc(NC(=O)CNC(=O)c2cccc(Cl)c2)nc1", "values": [{"measurement": "IC50", "setting": "[4]", "result": "13.1 µM (active)"}]}, {"smiles": "Cc1cc(Cl)ccc1OCCCC(=O)N1CCN(C(=O)c2ccco2)CC1", "values": [{"measurement": "IC50", "setting": "[4]", "result": "2 µM (active)"}]}, {"smiles": "O=C(COC(=O)CCc1c[nH]c(=O)[nH]1)Nc1ccccc1Cl", "values": [{"measurement": "EC50", "setting": "[5]", "result": "53.5 µM (active)"}, {"measurement": "EC50", "setting": "[7]", "result": "> 300 µM (not active)"}]}, {"smiles": "COc1ccc(/C=C2/C(=O)OCc3cc(OC)c(OC)cc32)cc1", "values": [{"measurement": "IC50", "setting": "[1]", "result": "78.5 µM (inactive)"}]}, {"smiles": "Oc1c(Cl)cc(Cl)cc1/C=N/c1ccc(Br)cc1", "values": [{"measurement": "IC50", "setting": "[4]", "result": "13.2 µM (active)"}]}, {"smiles": "C=CCOC(=O)C(C(C)=O)C(NC(=O)OC)c1ccc2ccccc2c1", "note": "(stereo not drawn)", "values": [{"measurement": "AC50", "setting": "[9]", "result": "1 µM (inconclusive)"}]}, {"smiles": "COc1ccc(Nc2ccc([N+](=O)[O-])c3nonc23)c(OC)c1", "values": [{"measurement": "IC50", "setting": "[10]", "result": "> 100 µM (active)"}]}, {"smiles": "CCS(=O)(=O)N1[C@H](CO)[C@H](c2ccc(C#CCC3CCCC3)cc2)[C@@H]1C#N", "values": [{"measurement": "AC50", "setting": "[2]", "result": "5.64 µM (active)"}, {"measurement": "AC50", "setting": "[3]", "result": "62.4 µM (active)"}]}, {"smiles": "NC(=O)c1snnc1-c1ccccc1", "values": [{"measurement": "EC50", "setting": "[5]", "result": "> 300 µM (not active)"}, {"measurement": "EC50", "setting": "[7]", "result": "> 300 µM (not active)"}]}]}
